Results published in US6737383B1, “Herbicidal oxadiazolidines” (priority 1999, dated 2004).

How the values were obtained:
[1] = system: bedstraw; assay: Test B pre/postemergence bedstraw; assay type: in vivo, Galium aparine
Summary of the method: (§1)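 Herbicidal effect was estimated by eye on a ten-point control scale after plants spent twelve to sixteen days in a greenhouse following soil or foliar treatment. Foliar sprays targeted plants at one to four leaves; all doses were formulated in a non-phytotoxic solvent with surfactant.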

[2] = system: blackgrass; assay: Test B pre/postemergence blackgrass; assay type: in vivo, Alopecurus myosuroides
Summary of the method: as §1

[3] = system: surinam grass; assay: Test B pre/postemergence surinam grass; assay type: in vivo, Brachiaria decumbens
Summary of the method: as §1

[4] = system: corn; assay: Test B pre/postemergence corn; assay type: in vivo, Zea mays
Summary of the method: as §1

[5] = system: giant foxtail; assay: Test B pre/postemergence giant foxtail; assay type: in vivo, Setaria faberii
Summary of the method: as §1

[6] = system: morningglory; assay: Test B pre/postemergence morningglory; assay type: in vivo, Ipomoea hederacea
Summary of the method: as §1

[7] = system: pigweed; assay: Test B pre/postemergence pigweed; assay type: in vivo, Amaranthus retroflexus
Summary of the method: as §1

[8] = system: rape; assay: Test B pre/postemergence rape; assay type: in vivo, Brassica napus
Summary of the method: as §1

[9] = system: soybean; assay: Test B pre/postemergence soybean; assay type: in vivo, Glycine max
Summary of the method: as §1

[10] = system: sugar beet; assay: Test B pre/postemergence sugar beet; assay type: in vivo, Beta vulgaris
Summary of the method: as §1

[11] = system: velvetleaf; assay: Test B pre/postemergence velvetleaf; assay type: in vivo, Abutilon theophrasti
Summary of the method: as §1

[12] = system: purple nutsedge; assay: Test B pre/postemergence purple nutsedge; assay type: in vivo, Cyperus rotundus
Summary of the method: as §1

[13] = system: rice; assay: Test B flood test rice; assay type: in vivo, Oryza sativa
Summary of the method: (§2)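 Flood test on plants grown to the 2-leaf stage; treated plants kept in greenhouse twelve to sixteen days, then visually rated against controls on a 0 (no effect) to 10 (complete control) scale.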

[14] = system: smallflower flatsedge; assay: Test B flood test smallflower flatsedge; assay type: in vivo, Cyperus difformis
Summary of the method: as §2

[15] = system: duck salad; assay: Test B flood test duck salad; assay type: in vivo, Heteranthera limosa
Summary of the method: as §2

[16] = system: bamyardgrass; assay: Test B flood test barnyardgrass; assay type: in vivo, Echinochloa crus-galli
Summary of the method: as §2

[17] = Postemergence, Rate 125 g/ha, scale of 0 to 10 where 0 is no effect and 10 is complete control
[18] = Preemergence, Rate 62 g/ha, scale 0 to 10 (0 no effect, 10 complete control)
[19] = Preemergence, Rate 125 g/ha, 0 is no effect, 10 is complete control
[20] = Preemergence, Rate 250 g/ha, scale 0 to 10, 0 is no effect, 10 is complete control
[21] = Preemergence, Rate 500 g/ha, scale 0 to 10 (0 no effect, 10 complete control)
[22] = Rate 62 g/ha, Postemergence, scale of 0 to 10 where 0 is no effect and 10 is complete control
[23] = Rate 250 g/ha, Postemergence, scale 0 to 10, 0 is no effect, 10 is complete control
[24] = Rate 500 g/ha, Postemergence, scale 0 to 10
[25] = Postemergence (flood test species), Rate 125 g/ha, scale of 0 to 10 where 0 is no effect and 10 is complete control
[26] = Rate 250 g/ha, Postemergence (flood test), scale 0 to 10, 0 is no effect, 10 is complete control
[27] = Rate 500 g/ha, listed under Postemergence (flood test species), scale 0 to 10

CCOC(=O)Cn1c(=O)on(C(=O)N(c2ccc(F)cc2)C(C)C)c1=O [Compound 128]
2: Blackgrass plant response rating [2, 21]
0: Bedstraw plant response rating [1, 17] | Bedstraw plant response rating [1, 18] | Bedstraw plant response rating (0 to 10 scale) [1, 19] | Bedstraw plant response rating [1, 20] | Bedstraw plant response rating [1, 21] | Bedstraw plant response rating [1, 22] | Plant response rating, Bedstraw [1, 23] | Bedstraw plant response rating ([1]; Rate 500 g/ha, Postemergence, scale 0 to 10, 0 no effect, 10 complete control) | Blackgrass plant response rating [2, 17] | Blackgrass plant response rating [2, 18] | Blackgrass plant response rating (0 to 10 scale) [2, 19] | Blackgrass plant response rating [2, 20] | Blackgrass plant response rating [2, 22] | Plant response rating, Blackgrass [2, 23] | Blackgrass plant response rating [2, 24] | B. signalgrass plant response rating [3, 17] | B. signalgrass plant response rating [3, 18] | B. signalgrass plant response rating (0 to 10 scale) [3, 19] | B. signalgrass plant response rating [3, 20] | B. signalgrass plant response rating [3, 21] | B. signalgrass plant response rating [3, 22] | Plant response rating, B. signalgrass [3, 23] | B. signalgrass plant response rating ([3]; Rate 500 g/ha, Postemergence, scale of 0 to 10 where 0 is no effect and 10 is complete control) | Corn plant response rating [4, 17] | Corn plant response rating [4, 18] | Corn plant response rating (0 to 10 scale) [4, 19] | Corn plant response rating [4, 20] | Corn plant response rating [4, 21] | Corn plant response rating [4, 22] | Plant response rating, Corn [4, 23] | Corn plant response rating [4, 24] | Giant foxtail plant response rating [5, 17] | Giant foxtail plant response rating [5, 18] | Giant foxtail plant response rating (0 to 10 scale) [5, 19] | Giant foxtail plant response rating [5, 20] | Giant foxtail plant response rating [5, 22] | Plant response rating, Giant foxtail [5, 23] | Giant foxtail plant response rating [5, 24] | Morningglory plant response rating [6, 17] | Morningglory plant response rating [6, 18] | Morningglory plant response rating (0 to 10 scale) [6, 19] | Morningglory plant response rating [6, 20] | Morningglory plant response rating [6, 21] | Morningglory plant response rating [6, 22] | Plant response rating, Morningglory [6, 23] | Morningglory plant response rating [6, 24] | Redroot pigweed plant response rating [7, 17] | Redroot pigweed plant response rating [7, 18] | Redroot pigweed plant response rating (0 to 10 scale) [7, 19] | Redroot pigweed plant response rating [7, 20] | Redroot pigweed plant response rating [7, 21] | Redroot pigweed plant response rating [7, 22] | Plant response rating, Redroot pigweed [7, 23] | Redroot pigweed plant response rating [7, 24] | Rape plant response rating [8, 17] | Rape plant response rating [8, 18] | Rape plant response rating (0 to 10 scale) [8, 19] | Rape plant response rating [8, 20] | Rape plant response rating [8, 21] | Rape plant response rating [8, 22] | Plant response rating, Rape [8, 23] | Rape plant response rating [8, 24] | Soybean plant response rating [9, 17] | Soybean plant response rating [9, 18] | Soybean plant response rating (0 to 10 scale) [9, 19] | Soybean plant response rating [9, 20] | Soybean plant response rating [9, 21] | Soybean plant response rating [9, 22] | Plant response rating, Soybean [9, 23] | Soybean plant response rating [9, 24] | Sugarbeets plant response rating [10, 17] | Sugarbeets plant response rating [10, 18] | Sugarbeets plant response rating (0 to 10 scale) [10, 19] | Sugarbeets plant response rating [10, 20] | Sugarbeets plant response rating [10, 21] | Sugarbeets plant response rating [10, 22] | Plant response rating, Sugarbeets [10, 23] | Sugarbeets plant response rating [10, 24] | Velvetleaf plant response rating [11, 17] | Velvetleaf plant response rating [11, 18] | Velvetleaf plant response rating (0 to 10 scale) [11, 19] | Velvetleaf plant response rating [11, 20] | Velvetleaf plant response rating [11, 21] | Velvetleaf plant response rating [11, 22] | Plant response rating, Velvetleaf [11, 23] | Velvetleaf plant response rating [11, 24] | Nutsedge plant response rating [12, 17] | Nutsedge plant response rating [12, 18] | Nutsedge plant response rating (0 to 10 scale) [12, 19] | Nutsedge plant response rating [12, 20] | Nutsedge plant response rating [12, 21] | Nutsedge plant response rating [12, 22] | Plant response rating, Nutsedge [12, 23] | Nutsedge plant response rating [12, 24] | Rice plant response rating [13, 25] | Plant response rating, Rice [13, 26] | Rice plant response rating [13, 27] | S. Flatsedge plant response rating [14, 25] | Plant response rating, S. Flatsedge [14, 26] | S. Flatsedge plant response rating [14, 27] | Ducksalad plant response rating [15, 25] | Plant response rating, Ducksalad [15, 26] | Ducksalad plant response rating [15, 27] | Barnyardgrass plant response rating [16, 25] | Plant response rating, Barnyardgrass [16, 26] | Barnyardgrass plant response rating ([16]; Rate 500 g/ha, listed under Postemergence (flood test species), scale 0 to 10, 0 no effect, 10 complete control)
8: Giant foxtail plant response rating [5, 21]
